# Entries after “also recorded” stand apart in the source; their conditions may differ.
# Experiments:
# VDR-LBD = target: T1, VDR-LBD (Homo sapiens, UniProt P11473); assay: HDX-MS of VDR-LBD with ligand in the dark and under 365 nm light; assay type: binding
# T1 construct: VDR-LBD protein stock solution was prepared in 20 mM HEPES buffer
# T1 sequence (P11473 127-423 limits assumed): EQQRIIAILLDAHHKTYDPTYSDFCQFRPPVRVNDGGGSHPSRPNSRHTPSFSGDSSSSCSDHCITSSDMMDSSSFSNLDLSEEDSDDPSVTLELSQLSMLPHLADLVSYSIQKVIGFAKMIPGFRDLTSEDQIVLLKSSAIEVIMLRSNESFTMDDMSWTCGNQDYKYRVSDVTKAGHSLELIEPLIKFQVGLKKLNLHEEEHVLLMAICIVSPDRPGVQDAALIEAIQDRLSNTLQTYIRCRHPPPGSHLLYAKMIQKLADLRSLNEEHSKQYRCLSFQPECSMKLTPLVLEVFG
# Description: Although previously used to study the effect of a cyclic azopeptide in its activated cis state, here we studied the target dynamics upon direct application of the light to the sample. To this aim, HDX-MS was applied for the characterization of the binding mode and modulation of receptor dynamics of the racemic compound PhotoVDRM. VDR-LBD was incubated alone (to provide an apo control for each experiment) or with an excess of compound PhotoVDRM and exposed to deuterium labeling for various periods of time, from 10 s to 2 h, in the dark and illuminated with light at 365 nm. […] As an additional control experiment, we also evaluated the HDX-MS of VDR-LBD in the presence and absence of a standard agonist, compound LSN2148936, in the dark and under illumination conditions. […] In order to permit direct comparison, including mathematical manipulation of the data in all these experiments, the observed deuterium incorporation percentages were converted to rate constants (expressed as −log10(k)) using our previously published Bayesian approach.
# (Perkin Elmer, now Revvity, Cat.No. 6006290) in duplicate. Immediately, 54 µL of the protein solution were added and the plate was covered and incubated for 30 min at room temperature in the dark. Meanwhile, the plate with the 10X dilutions was illuminated at 365 nm for 3 min in a 96-well DED array plate (LEDA Teleopto), to allow the photoconversion of the molecules to their cis configuration. The illuminated compounds were mixed with the protein solution and incubated as described above for the plate in the dark. After the incubation time, the counts of both, the dark and illuminated plates, were measured in a Tecan Spark 20M Multimode plate reader with defined settings (excitation: 680 nm, emission: 520-620 nm, excitation time: 100ms, integration time: 300 ms). Biotinylated-His6 peptide (PerkinElmer) was used as a quality control reagent for AlphaScreen® assays and to evaluate compound interaction with the method. […] Dose-response curves and EC50 values were calculated with Graphpad software. […]
# [1] = system: IL-23-induced psoriatic-like inflammation; assay: IL-23-induced mouse model of psoriasis (ear thickness); assay type: in vivo, C57BL/6N mice; details: days 2-4, i.p. PhotoVDRM 0.5 mg/kg
# Description: Each mice was administered interlueukin 23 (IL-23) once a day for a total of 3 days by intradermal injection (i.d.) into one of the mouse ears. Contralateral ear i.d. injected with PBS was used as control. Subsequently, ear thickness was measured daily, by using a digital caliper, as indicative of psoriasis-course progression (Figure A).
# (A) Temporal scheme for IL-23-induced mouse model of psoriasis. Animals were treated with IL-23 (i.d.) in the left ear during three consecutive days (days 1, 2 and 3). In addition, a contralateral control was performed consisting of PBS administration in the right ear. At day 2, 3, and 4 animals were previously intraperitoneally (i.p.) administered with vehicle (saline) and drugs (i.e., LSN2148936; 0.005 mg/kg and PhotoVDRM; 0.5 mg/kg). Both ears were irradiated with 420 or 520 nm light at day 2, 3, and 4 during 8 min. […] (C) Inflammatory ear response measurements. Mice ear thickness determination in animals administrated (ip) on days 2, 3, and 4 with vehicle, LSN2148936 or PhotoVDRM treated with 420 or 520 nm light. Each day, ear thickness was measured in millimeters and represented as percentage of ear thickness increase using the first measurement of PBS-administrated ear as control. Data is shown as mean ± SD, n = 5 mice per group. Statistical analysis between PhotoVDRM and vehicle. *P < 0.05 and **P < 0.01 Student’s t test.
compound,measurement,setting,value
Cc1cc(OCC(O)C(C)(C)C)ccc1N=Nc1cccc(-c2ccc(C(=O)O)cc2)c1 (stereo not shown) [Compound 11b],protection to H/D exchange,"VDR-LBD; in the dark, vs under light",much lower
same,protection to H/D exchange,"VDR-LBD; under 365 nm light, vs reference agonist LSN2148936",comparable
same,IL-23-induced ear inflammation (ear thickness),[1]; 420 nm light 8 min,significant reduction; also recorded: full antipsoriatic activity
same,IL-23-induced ear inflammation (ear thickness),[1]; 520 nm light 8 min,only partially reduces

# Reference: publication PMC12746157, “Light-Regulated Agonists Spatiotemporally Activating the Vitamin D Receptor Mitigate Psoriasis-like Inflammation in Mice without Inducing Hypercalcemia” (ACS Central Science, 2025)
